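Exposure lasted 48 hours, with cells grown in 96-well plates and compounds tested at five concentrations. GI50 marks 50% less growth. Definition used: TGI = concentration required for complete inhibition of growth.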
Assays:
Assay in all cases: NCI anticancer screen, dose series, 48 h
A549 NSCLC = tested on: A549 NSCLC
IGROV1 ovarian = tested on: IGROV1 ovarian
LOX IMVI melanoma = tested on: LOX IMVI melanoma
MALME-3M melanoma = tested on: MALME-3M melanoma
NCI-H226 lung = tested on: NCI-H226 lung
NCI-H522 lung = tested on: NCI-H522 lung
OVCAR-5 ovarian = tested on: OVCAR-5 ovarian
OVCAR-8 ovarian = tested on: OVCAR-8 ovarian
SN12C renal = tested on: SN12C renal
RXF 393 renal = tested on: RXF 393 renal

Compound	TGI (A549 NSCLC) [µM]	TGI (IGROV1 ovarian) [µM]	TGI (LOX IMVI melanoma) [µM]	TGI (MALME-3M melanoma) [µM]	TGI (NCI-H226 lung) [µM]	TGI (NCI-H522 lung) [µM]	TGI (OVCAR-5 ovarian) [µM]	TGI (OVCAR-8 ovarian) [µM]	TGI (SN12C renal) [µM]	GI50 (A549 NSCLC) [µM]	GI50 (IGROV1 ovarian) [µM]	GI50 (LOX IMVI melanoma) [µM]	GI50 (MALME-3M melanoma) [µM]	GI50 (NCI-H226 lung) [µM]	GI50 (NCI-H522 lung) [µM]	GI50 (OVCAR-5 ovarian) [µM]	GI50 (OVCAR-8 ovarian) [µM]	GI50 (SN12C renal) [µM]	GI50 (RXF 393 renal) [µM]	TGI (RXF 393 renal) [µM]
CCOC(=O)/C(C#N)=C(N)/C(=N\Nc1cccc(C(F)(F)F)c1)C(=O)OCC	> 100	> 100	> 100	> 100	> 100	> 100	> 100	> 100	> 100											
CC[C@H](C)[C@H](NC(=O)c1nccn1C)C(=O)N(C)[C@H](C[C@@H](OC(C)=O)c1nc(C(=O)N[C@@H](Cc2ccccc2)C[C@H](C)C(=O)OC)cs1)C(C)C	> 33.3	> 33.3	> 33.3	> 33.3	> 33.3	1.56	> 33.3	> 33.3	> 33.3	2.43	0.704	1.59	5.87	8.51	0.351	2.23	1.44	2.41		
C/C=C/C(=O)[O-].N.N.N.N.N.[Co+3].[O-][Cl+3]([O-])([O-])[O-]	> 100	> 100	> 100	> 100		> 100	> 100	> 100	> 100	> 100	> 100	> 100	> 100		> 100	> 100	> 100	> 100		
O=C(Nc1ccccc1C(=O)Nc1nccs1)c1ccccc1	> 100	> 100	> 100	> 100	> 100	> 100	> 100	> 100	> 100											
O=C1C2=C(c3ccccc31)C(c1ccc(Cl)cc1)NC(=S)N2 (stereo not given)	39	42.6		79.4	67.7	56.2	> 100	38.4	40.3											
Cc1ccc(C)c2c1CCc1cc3ccccc3nc1-2	> 100	> 100		> 100		> 100	> 100	> 100	> 100											
O=C1C2=C(c3ccccc31)C(c1ccc(F)cc1)N1C(=O)CCSC1=N2 (stereo not given)	> 100	> 100		> 100	> 100	> 100	> 100	> 100	> 100											
CC(C)=CCC/C(C)=C/[C@H]1OC(=O)CC12C[C@H](O)C=CC2=O (stereo not given in full)	15.8						2.54		2	2.08	1.65				1.19	1.14	0.791	0.529		
COC(=O)C12C3C4C1C1C2C3C41C(=O)N(C(C)C)C(C)C (stereo not given)	> 100	> 100		> 100	> 100	> 100	> 100	> 100	> 100											
Cc1cc(Cl)ccc1NC(=O)CCCC(=O)C(C(=O)c1ccccc1)c1ccccc1 (stereo not given)		> 100	> 100	> 100		> 100	> 100		> 100											
C=Cc1cnc([N+](=O)[O-])n1C	> 100		> 100	> 100	> 100		> 100	> 100	> 100											
O=C(c1ccccc1)c1ccccc1C(=O)c1ccccc1	> 100		> 100		> 100		> 100	> 100	> 100	50		46		52.3		> 100	34.5	> 100	47.8	> 100
CCC1(CC)C(=O)[N-]C(=O)[N-]C1=O.[Au+].[Au+].c1ccc([PH+](c2ccccc2)c2ccccc2)cc1.c1ccc([PH+](c2ccccc2)c2ccccc2)cc1		2.3		1.94		0.244	3.06		4.75		1.03		0.626		0.119	1.68		2.08		
Cn1c(O)c(N=NC(N)=S)c2ccccc21	> 100		> 100		> 100	> 100	> 100	> 100	> 100	62.6		58.5		> 100	43.9	> 100	54.8	> 100	32	> 100
COC(=O)C1=C(c2cc(OC)c(OC)c(OC)c2)O[C@H](c2ccc3c(c2)OCO3)[C@H]1COC(C)=O		> 100	> 100	> 100	> 100		> 100	> 100	96.2											
C=C1C[C@@H]2[C@H](CC[C@]3(C)C(=O)CC[C@@H]23)[C@@]2(C)C=CC(=O)C=C12	> 51.8	> 100	45.5	> 73.4	> 60	> 38.8	> 100	> 24	> 63.5	11.5	34.4	19.2	> 43.9	20.2	8.79	37.3	6.93	21		

From PubChem BioAssay (NCI)
